These are literature values, as cited in publication PMC9899610 (Cancer Science, 2022).

Where two headings read alike, the source gives them in different places.

In the data set the test system is patients with advanced or metastatic cholangiocarcinoma; urothelial carcinoma. The settings on record: cited from earlier work.
Setting [1] is: patients with advanced or metastatic cholangiocarcinoma.

`COc1cc(OC)cc(N(CCNC(C)C)c2ccc3ncc(-c4cnn(C)c4)nc3c2)c1` [erdafitinib]: the “Hyperphosphatemia, patients” value (patients with urothelial carcinoma) is reported as 77%. For the same compound, the “Patients who discontinued treatment because of retinal detachment” value (phase II study) is 13%.
On to `CCN1CCN(c2ccc(Nc3cc(N(C)C(=O)Nc4c(Cl)c(OC)cc(OC)c4Cl)ncn3)cc2)CC1` [infigratinib], for which the “Retinal AEs requiring dose interruption or treatment discontinuation” value is listed as “two discontinuations”. Further, the “Hyperphosphatemia, patients” value under setting [1] was 77%.
With `CCN1C(=O)N(c2c(F)c(OC)cc(OC)c2F)Cc2cnc3[nH]c(CN4CCOCC4)cc3c21` [pemigatinib], the “Retinal AEs requiring dose interruption or treatment discontinuation” value was “one dose interruption”. Also, the “Hyperphosphatemia, patients” value under setting [1] is 60%.
